Laboratory results taken from US20250263376A1, “(E)-N-CINNAMOYLAMINOALKANOLS WITH MELANOGENESIS INHIBITORY ACTIVITY” (Uniwersytet Jagiellonski, priority 2024, published 2025).

Experiments:
keratinocytes (HaCaT) = assay: Safety, LDH test in keratinocytes; format: cell-based; details: 48 hours, vs Triton X-100
Description: (§1) In order to test the safety of the compounds, both normal human cells were used: keratinocytes (HaCaT), fibroblasts (BJ), primary melanocytes that occur in the skin, as well as human cancer cells: the hepatocarcinoma line HepG2 and the neuroblastoma line SH-SY5Y, which are considered a model for the assessment of hepatocytotoxicity and neurocytotoxicity. The concentrations of the tested compounds in the range of […] were used in the studies. The cell lines used in the research were purchased from the American Type Culture Collection (ATCC) and were cultured in media recommended by the manufacturer with the addition of FBS and antibiotics in an incubator ensuring appropriate culture conditions, i.e. humidity, temperature and CO2 concentration. Cells were seeded into multiwell plates and incubated with the test compounds for 48 hours. After this time, MTT and LDH tests were performed to assess cell viability. The MTT test is based on the ability to transform the substrate: [3-(4,5-dimethyl-2-thiazolyl)-2,5-diphenyl-2H-tetrazolium bromide into a colored product only by living cells. The absorbance at 570 nm, which corresponds to the absorption maximum for the product, is directly proportional to cell viability. The LDH test is based on testing the activity of the enzyme lactate dehydrogenase in the culture medium, which is released from cells as a result of damage to the cell membrane, e.g. as a result of cell death. Triton X-100 was used as a positive control in the test. The determination is colorimetric, the substrate is transformed by the released enzyme into a colored product, an increase in absorbance indicates a larger amount of the released enzyme, and thus confirms greater damage to cell membranes. Tables 7 and 8 present the results obtained, which correspond to the viability of cells incubated with the compounds in relation to the viability of cells constituting a control sample, i.e. incubated with the solvent (DMSO) at the same concentration as in the case of the groups tested in the MTT test or in relation to the results obtained for the Triton X-100 positive control in the LDH test. They indicate that the compounds are safe at the concentrations tested.

primary melanocytes [1] = assay: Safety, LDH test in primary melanocytes; format: cell-based; details: 48 hours, vs Triton X-100
Description: as §1

fibroblasts (BJ) = assay: Safety, MTT test in fibroblasts; format: cell-based; details: 48 hours
Description: as §1

hepatocarcinoma HepG2 [2] = assay: Safety, LDH test in HepG2; format: cell-based; details: 48 hours, vs Triton X-100
Description: as §1

primary melanocytes [3] = assay: Safety, MTT test in primary melanocytes; format: cell-based; details: 48 hours
Description: as §1

neuroblastoma SH-SY5Y = assay: Safety, LDH test in SH-SY5Y; format: cell-based; details: 48 hours, vs Triton X-100
Description: as §1

hepatocarcinoma HepG2 [4] = assay: Safety, MTT test in HepG2; format: cell-based; details: 48 hours
Description: as §1

S. typhimurium TA1537 = assay: Ames microplate test, TA1537; format: cell-based, Salmonella typhimurium; details: without S9
Description: (§2) Bacteria were grown overnight in growth medium.

E. coli WP2 = assay: Ames microplate test, E. coli WP2; details: without S9;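 further: bacteria exposed to compound for 90 min at 37 °C in 24-well plates, then transferred with indicator medium to 384-well plates and incubated 48 h before yellow well counting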
S. typhimurium TA100 = assay: Ames microplate test, TA100; format: cell-based, Salmonella typhimurium; details: without S9
S. typhimurium TA98 = assay: Ames microplate test, TA98; format: cell-based, Salmonella typhimurium; details: without S9
Description: as §2

| Structure (SMILES) | LDH, Keratinocytes (HaCaT) (keratinocytes (HaCaT); 100 μM) | LDH, Keratinocytes (HaCaT) (keratinocytes (HaCaT); 150 μM) | LDH, Keratinocytes (HaCaT) (keratinocytes (HaCaT); 200 μM) | LDH, Keratinocytes (HaCaT) (keratinocytes (HaCaT); 250 μM) | LDH, Primary melanocytes (primary melanocytes [1]; 100 μM) | LDH, Primary melanocytes (primary melanocytes [1]; 150 μM) | LDH, Primary melanocytes (primary melanocytes [1]; 200 μM) | LDH, Primary melanocytes (primary melanocytes [1]; 250 μM) | MTT, Fibroblasts (BJ) (fibroblasts (BJ); 100 μM) | MTT, Fibroblasts (BJ) (fibroblasts (BJ); 150 μM) | MTT, Fibroblasts (BJ) (fibroblasts (BJ); 200 μM) | MTT, Fibroblasts (BJ) (fibroblasts (BJ); 250 μM) | LDH, Hepatocarcinoma HepG2 (hepatocarcinoma HepG2 [2]; 100 μM) | LDH, Hepatocarcinoma HepG2 (hepatocarcinoma HepG2 [2]; 150 μM) | LDH, Hepatocarcinoma HepG2 (hepatocarcinoma HepG2 [2]; 200 μM) | LDH, Hepatocarcinoma HepG2 (hepatocarcinoma HepG2 [2]; 250 μM) | MTT, Primary melanocytes (primary melanocytes [3]; 100 μM) | MTT, Primary melanocytes (primary melanocytes [3]; 150 μM) | MTT, Primary melanocytes (primary melanocytes [3]; 200 μM) | MTT, Primary melanocytes (primary melanocytes [3]; 250 μM) | also measured |
| --- | --- | --- | --- | --- | --- | --- | --- | --- | --- | --- | --- | --- | --- | --- | --- | --- | --- | --- | --- | --- | --- |
| O=C(/C=C/c1ccc(Cl)cc1)NCCCO [H-330/21, (2E)-3-(4-chlorophenyl)-N-(3-hydroxypropyl)prop-2-enamide] | 3.66 percentage of positive control | 5.33 percentage of positive control | 17.03 percentage of positive control | 24.24 percentage of positive control | 5.63 percentage of positive control | 13.09 percentage of positive control | 10.91 percentage of positive control | 18.10 percentage of positive control | 100.54 ± 5.01 % of solvent control | 94.85 ± 3.51 % of solvent control | 85.52 ± 3.08 % of solvent control | 76.51 ± 1.80 % of solvent control | 5.38 percentage of positive control | 4.90 percentage of positive control | 12.16 percentage of positive control | 19.02 percentage of positive control | 101.42 ± 2.21 % of solvent control | 97.02 ± 4.49 % of solvent control | 93.78 ± 2.29 % of solvent control | 90.27 ± 2.25 % of solvent control | LDH, Neuroblastoma SH-SY5Y (neuroblastoma SH-SY5Y; 100 μM): 6.19 percentage of positive control; LDH, Neuroblastoma SH-SY5Y (neuroblastoma SH-SY5Y; 150 μM): 4.90 percentage of positive control; LDH, Neuroblastoma SH-SY5Y (neuroblastoma SH-SY5Y; 200 μM): 8.35 percentage of positive control; LDH, Neuroblastoma SH-SY5Y (neuroblastoma SH-SY5Y; 250 μM): 13.41 percentage of positive control; MTT, Hepatocarcinoma HepG2 (hepatocarcinoma HepG2 [4]; 100 μM): 100.73 ± 4.51 % of solvent control; MTT, Hepatocarcinoma HepG2 (hepatocarcinoma HepG2 [4]; 150 μM): 100.44 ± 3.93 % of solvent control; MTT, Hepatocarcinoma HepG2 (hepatocarcinoma HepG2 [4]; 200 μM): 100.86 ± 6.41 % of solvent control; MTT, Hepatocarcinoma HepG2 (hepatocarcinoma HepG2 [4]; 250 μM): 93.16 ± 1.71 % of solvent control |
| Cc1ccc(/C=C/C(=O)NCCCCCO)cc1 [H-415/21, (2E)-N-(5-hydroxypentyl)-3-(4-methylphenyl)prop-2-enamide] | 2.95 percentage of positive control | 6.70 percentage of positive control | 10.18 percentage of positive control | 18.19 percentage of positive control | 4.22 percentage of positive control | 6.01 percentage of positive control | 8.34 percentage of positive control | 14.94 percentage of positive control | 102.12 ± 2.71 % of solvent control | 101.92 ± 2.88 % of solvent control | 96.13 ± 3.64 % of solvent control | 92.86 ± 4.30 % of solvent control | 3.90 percentage of positive control | 7.24 percentage of positive control | 8.92 percentage of positive control | 15.47 percentage of positive control | 103.27 ± 1.88 % of solvent control | 99.89 ± 2.43 % of solvent control | 94.81 ± 2.92 % of solvent control | 87.64 ± 1.44 % of solvent control | Increase in the number of yellow wells compared to the reference level, TA1537 (S. typhimurium TA1537; 0.5 mM): 0.33; Increase in the number of yellow wells compared to the reference level, TA1537 (S. typhimurium TA1537; 1.0 mM): 0.33; Increase in the number of yellow wells compared to the reference level, TA1537 (S. typhimurium TA1537; 2.0 mM): 0.00; Increase in the number of yellow wells compared to the reference level, E. coli WP2 (E. coli WP2; 0.5 mM): 0.64; Increase in the number of yellow wells compared to the reference level, E. coli WP2 (E. coli WP2; 1.0 mM): 0.40; Increase in the number of yellow wells compared to the reference level, E. coli WP2 (E. coli WP2; 2.0 mM): 0.95; Increase in the number of yellow wells compared to the reference level, TA100 (S. typhimurium TA100; 0.5 mM): 0.92; Increase in the number of yellow wells compared to the reference level, TA100 (S. typhimurium TA100; 1.0 mM): 0.58; Increase in the number of yellow wells compared to the reference level, TA100 (S. typhimurium TA100; 2.0 mM): 0.75; LDH, Neuroblastoma SH-SY5Y (neuroblastoma SH-SY5Y; 100 μM): 3.90 percentage of positive control; LDH, Neuroblastoma SH-SY5Y (neuroblastoma SH-SY5Y; 150 μM): 7.24 percentage of positive control; LDH, Neuroblastoma SH-SY5Y (neuroblastoma SH-SY5Y; 200 μM): 8.92 percentage of positive control; LDH, Neuroblastoma SH-SY5Y (neuroblastoma SH-SY5Y; 250 μM): 10.55 percentage of positive control; MTT, Hepatocarcinoma HepG2 (hepatocarcinoma HepG2 [4]; 100 μM): 100.32 ± 1.75 % of solvent control; MTT, Hepatocarcinoma HepG2 (hepatocarcinoma HepG2 [4]; 150 μM): 99.54 ± 5.74 % of solvent control; MTT, Hepatocarcinoma HepG2 (hepatocarcinoma HepG2 [4]; 200 μM): 100.53 ± 3.98 % of solvent control; MTT, Hepatocarcinoma HepG2 (hepatocarcinoma HepG2 [4]; 250 μM): 98.90 ± 4.21 % of solvent control; Increase in the number of yellow wells compared to the reference level, TA98 (S. typhimurium TA98; 0.5 mM): 0.47; Increase in the number of yellow wells compared to the reference level, TA98 (S. typhimurium TA98; 1.0 mM): 0.24; Increase in the number of yellow wells compared to the reference level, TA98 (S. typhimurium TA98; 2.0 mM): 0.35 |
| O=C(/C=C/c1ccc(Cl)cc1)NCCO [H-427/21, (2E)-3-(4-chlorophenyl)-N-(2-hydroxyethyl)prop-2-enamide] | 2.76 percentage of positive control | 3.69 percentage of positive control | 6.50 percentage of positive control | 17.79 percentage of positive control | 3.93 percentage of positive control | 4.44 percentage of positive control | 4.31 percentage of positive control | 15.01 percentage of positive control | 101.82 ± 3.99 % of solvent control | 100.76 ± 3.34 % of solvent control | 100.37 ± 3.92 % of solvent control | 98.13 ± 2.81 % of solvent control | 3.09 percentage of positive control | 4.45 percentage of positive control | 5.98 percentage of positive control | 13.51 percentage of positive control | 102.20 ± 2.24 % of solvent control | 100.57 ± 2.18 % of solvent control | 93.78 ± 2.18 % of solvent control | 85.19 ± 2.03 % of solvent control | LDH, Neuroblastoma SH-SY5Y (neuroblastoma SH-SY5Y; 100 μM): 3.09 percentage of positive control; LDH, Neuroblastoma SH-SY5Y (neuroblastoma SH-SY5Y; 150 μM): 4.45 percentage of positive control; LDH, Neuroblastoma SH-SY5Y (neuroblastoma SH-SY5Y; 200 μM): 5.98 percentage of positive control; LDH, Neuroblastoma SH-SY5Y (neuroblastoma SH-SY5Y; 250 μM): 8.87 percentage of positive control; MTT, Hepatocarcinoma HepG2 (hepatocarcinoma HepG2 [4]; 100 μM): 99.61 ± 4.37 % of solvent control; MTT, Hepatocarcinoma HepG2 (hepatocarcinoma HepG2 [4]; 150 μM): 98.44 ± 3.94 % of solvent control; MTT, Hepatocarcinoma HepG2 (hepatocarcinoma HepG2 [4]; 200 μM): 97.07 ± 4.00 % of solvent control; MTT, Hepatocarcinoma HepG2 (hepatocarcinoma HepG2 [4]; 250 μM): 100.08 ± 10.58 % of solvent control |
